Experimental data as given in ChEMBL document CHEMBL1909046, “DrugMatrix in vitro pharmacology data”.

Legend:
D(4) dopamine receptor = biological target: T1, D(4) dopamine receptor (Homo sapiens, UniProt P21917); assay: DRUGMATRIX: Dopamine D4.2 radioligand binding (ligand: [3H] Spiperone); assay type: cell membranes, CHO-K1, Membrane; settings: cho-k1; Not Active = under 50% inhibition at 10 µM
T1 sequence (P21917 whole entry): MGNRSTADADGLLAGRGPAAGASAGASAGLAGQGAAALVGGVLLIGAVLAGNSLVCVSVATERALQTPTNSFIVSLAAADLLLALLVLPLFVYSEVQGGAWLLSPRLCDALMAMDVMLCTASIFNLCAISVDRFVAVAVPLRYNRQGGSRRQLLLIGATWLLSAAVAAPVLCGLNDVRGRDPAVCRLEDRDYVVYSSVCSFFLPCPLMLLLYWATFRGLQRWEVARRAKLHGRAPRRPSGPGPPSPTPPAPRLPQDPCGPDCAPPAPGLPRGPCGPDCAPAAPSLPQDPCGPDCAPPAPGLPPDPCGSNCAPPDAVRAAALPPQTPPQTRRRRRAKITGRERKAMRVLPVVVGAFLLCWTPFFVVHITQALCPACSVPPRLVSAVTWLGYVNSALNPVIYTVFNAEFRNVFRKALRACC

Glycine receptor = Glycine receptor (Rattus norvegicus, UniProt P22771+P24524+P07727+P20781); assay type: cell membranes, Wistar, Spinal cord, Membrane; also: in other assays of this panel Not Active means under 50% inhibition at 10 µM
[1] = biological target: Delta-type opioid receptor (Homo sapiens, UniProt P41143); assay type: cell membranes, HEK293, Membrane; settings: hek293; also: in other assays of this panel Not Active means under 50% inhibition at 10 µM
Delta-type opioid receptor, sequence (P41143 whole entry): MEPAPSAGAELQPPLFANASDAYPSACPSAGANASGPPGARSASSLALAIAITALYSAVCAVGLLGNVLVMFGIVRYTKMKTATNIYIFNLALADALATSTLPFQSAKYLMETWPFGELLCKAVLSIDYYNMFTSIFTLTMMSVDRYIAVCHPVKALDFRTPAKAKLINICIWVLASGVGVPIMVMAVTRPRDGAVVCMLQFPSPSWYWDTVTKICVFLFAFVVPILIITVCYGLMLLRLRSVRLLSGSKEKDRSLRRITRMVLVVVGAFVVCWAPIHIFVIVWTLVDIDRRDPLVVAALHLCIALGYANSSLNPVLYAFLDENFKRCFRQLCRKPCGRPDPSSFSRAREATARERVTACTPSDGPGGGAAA

Cytochrome P450 2C9 = Cytochrome P450 2C9 (Homo sapiens, UniProt P11712); settings: bti-tn-5b1-4; also: in other assays of this panel Not Active means under 50% inhibition at 10 µM
Cytochrome P450 2C9, sequence (P11712 whole entry): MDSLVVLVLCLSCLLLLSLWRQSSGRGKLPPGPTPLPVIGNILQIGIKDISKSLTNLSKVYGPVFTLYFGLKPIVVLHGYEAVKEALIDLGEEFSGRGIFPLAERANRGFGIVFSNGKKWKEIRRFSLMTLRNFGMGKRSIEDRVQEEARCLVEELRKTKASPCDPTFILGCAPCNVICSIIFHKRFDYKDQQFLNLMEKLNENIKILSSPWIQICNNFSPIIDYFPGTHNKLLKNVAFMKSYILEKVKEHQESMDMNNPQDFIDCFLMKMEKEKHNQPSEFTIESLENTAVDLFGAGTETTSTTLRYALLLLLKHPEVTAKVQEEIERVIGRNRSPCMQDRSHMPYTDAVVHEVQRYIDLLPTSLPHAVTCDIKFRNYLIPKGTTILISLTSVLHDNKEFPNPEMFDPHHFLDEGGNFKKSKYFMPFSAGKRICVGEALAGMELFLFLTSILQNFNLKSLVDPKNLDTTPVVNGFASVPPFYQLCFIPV

[2] = biological target: T2, Neuropeptide Y receptor type 1 (Homo sapiens, UniProt P25929); assay type: cell membranes, Membrane; settings: sk-n-mc; also: in other assays of this panel Not Active means under 50% inhibition at 10 µM
T2 sequence (P25929 whole entry): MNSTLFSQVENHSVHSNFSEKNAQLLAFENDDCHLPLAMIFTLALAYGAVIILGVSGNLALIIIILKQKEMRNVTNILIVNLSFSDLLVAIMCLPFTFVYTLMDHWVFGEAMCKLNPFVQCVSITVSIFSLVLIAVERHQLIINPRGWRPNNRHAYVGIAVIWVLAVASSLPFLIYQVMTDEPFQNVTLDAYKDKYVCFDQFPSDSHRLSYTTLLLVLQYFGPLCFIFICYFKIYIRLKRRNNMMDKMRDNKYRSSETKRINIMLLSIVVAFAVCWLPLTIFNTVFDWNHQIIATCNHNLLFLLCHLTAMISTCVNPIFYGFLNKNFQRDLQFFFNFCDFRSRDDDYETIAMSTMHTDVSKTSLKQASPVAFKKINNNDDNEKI

[3] = biological target: 5-hydroxytryptamine receptor 1B (Rattus norvegicus, UniProt P28564); assay type: cell membranes, Wistar, Cerebral cortex, Membrane; also: in other assays of this panel Not Active means under 50% inhibition at 10 µM
5-hydroxytryptamine receptor 1B, sequence (P28564 whole entry): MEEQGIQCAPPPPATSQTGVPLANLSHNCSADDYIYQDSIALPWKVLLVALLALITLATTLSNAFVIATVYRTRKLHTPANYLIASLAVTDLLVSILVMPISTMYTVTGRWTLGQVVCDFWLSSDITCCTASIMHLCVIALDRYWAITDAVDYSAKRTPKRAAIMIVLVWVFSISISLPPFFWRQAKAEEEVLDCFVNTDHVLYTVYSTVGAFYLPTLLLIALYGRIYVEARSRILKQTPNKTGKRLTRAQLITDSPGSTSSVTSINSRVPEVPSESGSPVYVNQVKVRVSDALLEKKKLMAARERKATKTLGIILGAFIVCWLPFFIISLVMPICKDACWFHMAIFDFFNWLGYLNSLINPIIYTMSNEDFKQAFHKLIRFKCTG

[4] = biological target: T3, C-X-C chemokine receptor type 2 (Homo sapiens, UniProt P25025); assay type: cell membranes, Membrane; settings: cho-k1; also: in other assays of this panel Not Active means under 50% inhibition at 10 µM
T3 sequence (P25025 whole entry): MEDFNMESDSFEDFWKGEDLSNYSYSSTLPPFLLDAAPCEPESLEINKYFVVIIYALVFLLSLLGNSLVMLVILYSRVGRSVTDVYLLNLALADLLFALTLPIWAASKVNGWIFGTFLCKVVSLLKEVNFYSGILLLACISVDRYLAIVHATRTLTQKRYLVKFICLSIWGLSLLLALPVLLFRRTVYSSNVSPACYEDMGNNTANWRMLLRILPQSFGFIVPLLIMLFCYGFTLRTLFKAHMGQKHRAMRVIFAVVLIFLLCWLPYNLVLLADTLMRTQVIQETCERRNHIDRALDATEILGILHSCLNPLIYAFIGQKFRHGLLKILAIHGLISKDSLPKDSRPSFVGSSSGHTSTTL

| Molecule | IC50 (D(4) dopamine receptor) | IC50 (Glycine receptor) | IC50 [1] | IC50 (Cytochrome P450 2C9) | Ki (Cytochrome P450 2C9) | IC50 [2] | IC50 ([3]; read-out: IC50) [µM] | Ki ([3]; read-out: Ki) [µM] | IC50 [4] | IC50 [3] | Ki (D(4) dopamine receptor) | Ki (Glycine receptor) | Ki [1] | Ki [2] | Ki [3] | Ki [4] |
| --- | --- | --- | --- | --- | --- | --- | --- | --- | --- | --- | --- | --- | --- | --- | --- | --- |
| CC[C@@H](CO)NC(=O)[C@@H]1C=C2c3cccc4[nH]cc(c34)C[C@H]2N(C)C1 [METHYLERGONOVINE] | Not Active | Not Active | Not Active | Not Active | Not Active | Not Active | 0.015 | 0.00926 | Not Active | – | – | – | – | – | – | – |
| c1ccc([C@H]2CN3CCSC3=N2)cc1 [LEVAMISOLE] | Not Active | Not Active | Not Active | Not Active | Not Active | Not Active | – | – | Not Active | Not Active | – | – | – | – | – | – |
| Nc1nc2nc[nH]c2c(=S)[nH]1 [THIOGUANINE] | Not Active | Not Active | Not Active | Not Active | Not Active | Not Active | – | – | Not Active | Not Active | – | – | – | – | – | – |
| SODIUM NITROPRUSSIDE | Not Active | Not Active | Not Active | Not Active | Not Active | Not Active | – | – | Not Active | Not Active | Not Active | Not Active | Not Active | Not Active | Not Active | Not Active |
| Cn1ccnc1S [METHIMAZOLE] | Not Active | Not Active | Not Active | Not Active | Not Active | Not Active | – | – | Not Active | Not Active | – | – | – | – | – | – |
| Cc1oncc1C(=O)Nc1ccc(C(F)(F)F)cc1 [LEFLUNOMIDE] | Not Active | Not Active | Not Active | Not Active | Not Active | Not Active | – | – | Not Active | Not Active | – | – | – | – | – | – |
| COc1c(C)c2c(c(O)c1C/C=C(\C)CCC(=O)O)C(=O)OC2 [MYCOPHENOLIC ACID] | Not Active | Not Active | Not Active | Not Active | Not Active | Not Active | – | – | Not Active | Not Active | – | – | – | – | – | – |
| CCCOc1ccccc1-c1nc2nn[nH]c2c(=O)[nH]1 [ZAPRINAST] | Not Active | Not Active | Not Active | Not Active | Not Active | Not Active | – | – | Not Active | Not Active | – | – | – | – | – | – |
| C=CCC1(C(C)CCC)C(=O)NC(=O)NC1=O (stereo not given) [SECOBARBITAL] | Not Active | Not Active | Not Active | Not Active | Not Active | Not Active | – | – | Not Active | Not Active | – | – | – | – | – | – |
| CC(=O)[C@@]1(O)CC[C@H]2[C@@H]3C[C@H](C)C4=CC(=O)CC[C@]4(C)[C@H]3CC[C@@]21C | Not Active | Not Active | Not Active | Not Active | Not Active | Not Active | – | – | Not Active | Not Active | – | – | – | – | – | – |
| N#CC(C#N)=Cc1ccc(O)c(O)c1 [TYRPHOSTIN 23] | Not Active | Not Active | Not Active | Not Active | Not Active | Not Active | – | – | Not Active | Not Active | – | – | – | – | – | – |
